Measurements taken from article PMC5844225 (Journal of medicinal chemistry, 2016).

Key:
[1] = system: S. mansoni schistosomula; experiment: Automated ex vivo larval S. mansoni HCS assay; format: cell-based, Schistosoma mansoni; conditions: 48 h exposure
[2] = system: SmTGR; conditions: cited from earlier work

Structure (SMILES) | schistosomula phenotype [1] | SmTGR inhibition mode [2]
Cc1noc(/C=C/c2ccccn2)c1[N+](=O)[O-] [Compound 3, 2-[2-(3-methyl-4-nitro-5-isoxazolyl)vinyl]pyridine] | internal disruption of larvae | 
O=S(=O)(Cc1ccccc1)c1nc2ccccc2s1 [Compound 4, 2-(benzylsulfonyl)-1,3-benzothiazole] | internal disruption of larvae | 
Cc1c(-c2cnccn2)ssc1=S [OLT, oltipraz] |  | noncompetitive inhibitor
